# Source: US11623931B2, “Bicyclic compounds for diagnosis and therapy” (AC IMMUNE SA, priority 2016, dated 2023)
# Assays:
# [1] = tested on: Aβ plaques on AD sections; assay: Assay 1 (fluorescence based assay): direct staining of human Alzheimer's disease brain sections; assay type: binding; set-up: key: − (No); +/− (very weak); + (weak); ++ (good); +++ (strong); settings: staining intensity; compound 100 μM, frozen amygdala sections, AD Braak stage V-VI
# Experimental: Direct Staining of Compounds of this Invention to Human Alzheimer's Disease Brain Sections 20 μm frozen sections from amygdala were purchased from an external provider (Tissue Solutions Ltd.). Donors were diagnosed with AD, Braak stage V-VI (Braak et al., Neurobiol. Aging, 1995, 16, 271-284) and thus with confirmed Aβ pathology. Sections were kept at −80° C. until start of the experiment. Brain sections were encircled with pap pen liquid blocker to reduce the volume of solution for the different incubations. Sections were fixed for 15 min at 4° C. with 4% paraformaldehyde and washed three times for 5 minutes with PBS at room temperature. Test compounds were incubated on the sections at 100 μM in 50% ethanol in water for 30 min at room temperature, followed by three washes of 5 minutes with PBS. Sections were then saturated and permeabilized in blocking buffer (PBS, 10% NGS, 0.25% Triton) for 1 hour at room temperature and then incubated for 2 hours at room temperature with the primary antibodies against AR, 4G8, (Covance, SIG-39220), diluted 1/250 in PBS, 5% NGS, and 0.25% Triton. After three washes in PBS, the sections were incubated for 30 minutes at room temperature with a secondary anti-mouse antibody labeled with AlexaFluor555 (Invitrogen A21422) and further washed three times in PBS. To reduce auto-fluorescence of the tissue, the sections were incubated in a solution of 0.1% Sudan Black (Sigma 199664) in 70% ethanol for 15 min at room temperature, followed by four washes with PBS and mounted under cover slips using ProLong Gold Antifade reagent (Invitrogen P36930). Sections were analyzed on the Nikon Eclipse Ti microscope to detect staining and imaged using Nikon DS-Fi2 camera and NIS-Element AR4.13.1 software.
# [2] = target: T1, aSyn aggregates on PD sections (Homo sapiens, UniProt P37840); assay: Assay 1 (fluorescence based assay): direct staining of human Parkinson's disease brain sections; assay type: binding; set-up: key: − (No); +/− (very weak); + (weak); ++ (good); +++ (strong); settings: staining intensity; compound 100 μM, frozen amygdala sections, PD Braak stage V-VI
# T1 construct: 20 μm frozen sections from amygdala were purchased from an external provider (Tissue Solutions Ltd.); tissue Tissue Solutions Ltd; host or cells: human PD amygdala, frozen sections, Braak stage V-VI
# Description: Assay 1 (Fluorescence Based Assay):
# Direct Staining of Compounds of this Invention to Human Parkinson's Disease Brain Sections
# 20 μm frozen sections from amygdala were purchased from an external provider (Tissue Solutions Ltd.). Donors were diagnosed with PD, Braak stage V-VI (Braak et al., Neurobiol. Aging, 2003, 24, 197-211) and thus with confirmed aSyn pathology. PD donors, Braak stage V-VI with mixed pathology, containing aSyn aggregates as well as Aβ plaques, were also used in this assay. Sections were kept at −80° C. until start of the experiment.
# Brain sections were encircled with pap pen liquid blocker to reduce the volume of solution for the different incubations. Sections were fixed for 15 min at 4° C. with 4% paraformaldehyde and washed three times for 5 minutes with PBS (phosphate buffered saline) at room temperature. Test compounds were incubated on the sections at 100 μM in 50% ethanol in water for 30 min at room temperature, followed by three washes of 5 minutes with PBS. Sections were then saturated and permeabilized in blocking buffer (PBS, 10% NGS, 0.25% Triton) for 1 hour at room temperature and then incubated for 2 hours at room temperature with the primary antibodies against aSyn: aSyn-211 (SantaCruz Biotechnology sc-12767) or aSyn-pS129 (Abcam AB51253), and primary antibody against AR, 4G8, (Covance, SIG-39220). All primary antibodies diluted 1/250 in PBS, 5% NGS, 0.25% Triton. After three washes in PBS, the sections were incubated for 30 minutes at room temperature with a secondary anti-mouse antibody labeled with AlexaFluor555 (Invitrogen A21422) or anti-rabbit antibody labeled with AlexaFluor555 (Invitrogen A21428) and further washed three times in PBS. To reduce auto-fluorescence of the tissue, the sections were incubated in a solution of 0.1% Sudan Black (Sigma 199664) in 70% ethanol for 15 min at room temperature, followed by four washes with PBS and mounted under cover slips using ProLong Gold Antifade reagent (Invitrogen P36930).
# Sections were analyzed on the Nikon Eclipse Ti microscope to detect staining and imaged using Nikon DS-Fi2 camera and NIS-Element AR4.13.1 software.
Compound,Staining of Aβ plaques on AD sections [1],Staining of aSyn aggregates on PD sections [2]
CNc1ccc(-c2ccc3cc(-c4ccc(OC)c(O)c4)sc3n2)cc1 [Example 30],++,++
CNc1ccc(-c2ccc3cc(-c4cccnc4)sc3n2)cn1 [Example 47],+++,+++
CNc1ccc(-c2ccc3cc(-c4cccnc4)sc3n2)cc1 [Example 14],+++,++
CNc1ccc(-c2ccc3cc(-c4ccc(OCCF)cc4)sc3n2)cc1 [Example 11],++,+
CNc1ccc(-c2ccc3cc(-c4cccc(OC)c4O)sc3n2)cn1 [Example 3],++,++
FCCOc1ccc(Nc2ccc3cc(-c4cccnc4)sc3n2)cc1 [Example 63],++,++
CN(C)c1ccc(-c2ccc3cc(-c4ccc(N(C)C)nc4)sc3n2)cn1 [Example 37],+,++
CNc1ccc(-c2cc3ccc(Nc4ccc5c(c4)OCCO5)nc3s2)cc1 [Example 75],+++,++
Cn1cc(-c2ccc3sc(-c4ccc(N5CC[C@H](F)C5)nc4)nc3c2)cn1 [Example 53],+,+
CN(C)c1ccc(-c2cc3ccc(-c4ccc(F)nc4)nc3s2)cn1 [Example 36],+++,+++
F[C@@H]1CCN(c2ccc(-c3ccc4sc(-c5cccnc5)cc4n3)cn2)C1 [Example 44],−,+
Cn1cc(-c2ccc3sc(-c4ccc(N5CCCC5)nc4)nc3c2)cn1 [Example 20],−,+
CN(CCF)c1ccc(-c2ccc3cc(-c4cccnc4)sc3n2)cn1 [Example 57],+,++
O=C1COCCN1c1ccc2nc(-c3ccc(N4CC[C@@H](F)C4)nc3)sc2c1 [Example 72],+,+++
OCCOC1CCN(c2ccc3cc(-c4cccnc4)sc3n2)CC1 [Example 49],++,++
FCCOc1ccc(-c2cc3ccc(-c4ccc(F)nc4)nc3s2)cc1 [Example 12],++,+
FCCOC1CCN(c2cc3nc(-c4ccc(N5CCCC5)nc4)sc3cn2)CC1 [Example 68],−,+
Cn1cc(-c2ccc3sc(-c4ccc(N5CC[C@@H](F)C5)nc4)nc3c2)cn1 [Example 52],−,+
O=C1c2sc(-c3ccc(N4CCCC4)nc3)nc2CCN1CCF [Example 78],+,+
c1cncc(-c2cc3ccc(-c4ccc(N5CCCC5)nc4)nc3s2)c1 [Example 32],+++,+++
FC1CCN(c2ccc(-c3ccc4cc(-c5cccnc5)sc4n3)cn2)CC1 [Example 48],+,++
Fc1ccncc1-c1ccc2sc(-c3ccc(N4CCCC4)nc3)nc2c1 [Example 40],+,+++

Compound,Staining of Aβ plaques on AD sections [1],Staining of aSyn aggregates on PD sections [2]
CN1CCN(c2ccc3nc(-c4ccc(N5CC[C@H](F)C5)nc4)sc3c2)C(=O)C1 [Example 71],−,+
CN1CCN(c2ccc3nc(-c4ccc(N5CCCC5)nc4)sc3c2)C(=O)C1 [Example 69],+,++
c1cncc(-c2cc3ccc(-c4ccc(N5CCOCC5)cc4)nc3s2)c1 [Example 33],+,+++
CNc1ccc(-c2ccc3cc(-c4ccccc4OC)sc3n2)cn1 [Example 7],+++,++
c1cncc(-c2cnc3sc(-c4ccc(N5CCCC5)nc4)nc3c2)c1 [Example 23],+,++
c1cncc(-c2cc3ccc(Nc4ccc(N5CCOCC5)nc4)nc3s2)c1 [Example 66],++,+
F[C@@H]1CCN(c2ccc(-c3cc4nc(-c5cccnc5)ccc4s3)cn2)C1 [Example 46],+,+
c1cncc(-c2cc3ccc(Nc4ccc5c(c4)OCCO5)nc3s2)c1 [Example 64],+++,+
CN(C)c1ccc(-c2cc3ccc(-c4ccc(N5CCC(F)CC5)nc4)nc3s2)cn1 [Example 50],+,++
COc1ccc(/C=C/c2ccc3cc(-c4cccnc4)sc3n2)cc1 [Example 15],+++,+++
FCCOc1cccc(Nc2ccc3cc(-c4cccnc4)sc3n2)c1 [Example 59],+,+
CN(C)c1ncc(-c2ccc3cc(-c4cccnc4)sc3n2)cn1 [Example 29],++,+
CNc1ccc(-c2cc3ccc(Nc4ccc(OCCF)cc4)nc3s2)cc1 [Example 74],+++,+
Fc1cncc(-c2ccc3sc(-c4ccc(N5CCCC5)nc4)cc3n2)c1 [Example 28],+,+
CN1CCN(c2ccc3nc(-c4ccc(N5CC[C@@H](F)C5)nc4)sc3c2)C(=O)C1 [Example 70],+,+
Cn1cc(-c2ccc3sc(-c4ccc(N5CCCC5)nc4F)nc3c2)cn1 [Example 42],+,+
c1cncc(-c2ccc3nc(-c4ccc(N5CCCC5)nc4)sc3c2)c1 [Example 19],+++,+++
c1ccc(-c2cc3ccc(-c4ccc(N5CCCC5)nc4)nc3s2)nc1 [Example 21],++,++
CNc1ccc(-c2ccc3cc(-c4ccc(F)nc4)sc3n2)cn1 [Example 8],+++,++
F[C@@H]1CCN(c2ccc(-c3ccc4cc(-c5cccnc5)sc4n3)cn2)C1 [Example 45],++,+
COc1ccc(C#Cc2ccc3cc(-c4cccnc4)sc3n2)cc1 [Example 77],++,++
